Test results reported in ChEMBL document CHEMBL1201862, “PubChem BioAssay data set” (2004).
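Assay format: 96-well plates, 48-hour exposure. Abbreviation: GI50, concentration required for 50% inhibition of growth.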 Active and inactive are the calls of the source. No stated cut-off is given here; in the data, active = GI50 up to about 1.1 µM and inactive = higher.

Legend:
Assay in all cases: NCI-60 cell line screen, 48 h
A498 = tested on: A498
COLO 205 = tested on: COLO 205
HCC 2998 = tested on: HCC 2998
HOP-92 = tested on: HOP-92
IGROV-1 = tested on: IGROV-1
K562 = tested on: K562
KM12 = tested on: KM12
M14 = tested on: M14
MCF7 = tested on: MCF7
NCI-H226 = tested on: NCI-H226
NCI-H522 = tested on: NCI-H522
NCI/ADR-RES = tested on: NCI/ADR-RES
OVCAR-4 = tested on: OVCAR-4
OVCAR-5 = tested on: OVCAR-5
SF-268 = tested on: SF-268
SK-MEL-28 = tested on: SK-MEL-28
SK-MEL-5 = tested on: SK-MEL-5
SK-OV-3 = tested on: SK-OV-3
UACC-257 = tested on: UACC-257
SF-539 = tested on: SF-539

SMILES	GI50 (A498)	GI50 (COLO 205)	GI50 (HCC 2998)	GI50 (HOP-92)	GI50 (IGROV-1)	GI50 (K562)	GI50 (KM12)	GI50 (M14)	GI50 (MCF7)	GI50 (NCI-H226)	GI50 (NCI-H522)	GI50 (NCI/ADR-RES)	GI50 (OVCAR-4)	GI50 (OVCAR-5)	GI50 (SF-268)	GI50 (SK-MEL-28)	GI50 (SK-MEL-5)	GI50 (SK-OV-3)	GI50 (UACC-257)	GI50 (SF-539)
CC(=O)c1c(C)cn(S(=O)(=O)NC(=O)Nc2nncs2)c1C	> 100 µM (inactive)	> 100 µM (inactive)	> 100 µM (inactive)	> 100 µM (inactive)	> 100 µM (inactive)	> 100 µM (inactive)	> 100 µM (inactive)	> 100 µM (inactive)	> 100 µM (inactive)	49.2 µM (inactive)	> 100 µM (inactive)	> 100 µM (inactive)	> 100 µM (inactive)	> 100 µM (inactive)	> 100 µM (inactive)	> 100 µM (inactive)	> 100 µM (inactive)	> 100 µM (inactive)	> 100 µM (inactive)	
Nc1ccccc1OCCCOc1ccccc1N	> 100 µM (inactive)	> 100 µM (inactive)	> 100 µM (inactive)	> 100 µM (inactive)	> 100 µM (inactive)	> 100 µM (inactive)	> 100 µM (inactive)	> 100 µM (inactive)	> 100 µM (inactive)	> 100 µM (inactive)	> 100 µM (inactive)	> 100 µM (inactive)	> 100 µM (inactive)	> 100 µM (inactive)	> 100 µM (inactive)	> 100 µM (inactive)	78.3 µM (inactive)	> 100 µM (inactive)	> 100 µM (inactive)	> 100 µM (inactive)
C=C(c1ccccc1)c1ccccc1-c1cc(-c2ccccc2)cc(-c2ccccc2)n1	> 100 µM (inactive)		98.6 µM (inactive)	> 100 µM (inactive)	> 100 µM (inactive)	53.6 µM (inactive)	> 100 µM (inactive)	> 100 µM (inactive)	> 100 µM (inactive)	> 100 µM (inactive)	28.4 µM (inactive)	> 100 µM (inactive)		> 100 µM (inactive)	> 100 µM (inactive)	> 100 µM (inactive)	78.3 µM (inactive)		> 100 µM (inactive)	> 100 µM (inactive)
S=C(N/N=C(/c1ccccc1)c1ccccn1)Nc1ccc(Cl)cc1	3.3 µM (inactive)	0.0418 µM (active)	1.88 µM (inactive)	2.11 µM (inactive)	0.112 µM (active)	< 0.01 µM (active)	1.07 µM (active)	0.03 µM (active)	0.0258 µM (active)	0.542 µM (active)	1.16 µM (inactive)	0.195 µM (active)	5.06 µM (inactive)	0.0705 µM (active)	0.236 µM (active)	2.28 µM (inactive)	0.403 µM (active)	0.175 µM (active)	0.0569 µM (active)	1.45 µM (inactive)
Nc1ccc2c(c1)C(=O)c1c(F)cccc1-2	> 100 µM (inactive)	44.3 µM (inactive)	40 µM (inactive)	15.5 µM (inactive)			40.5 µM (inactive)	50.4 µM (inactive)	10.1 µM (inactive)	27.7 µM (inactive)	34.5 µM (inactive)	35.6 µM (inactive)			17.9 µM (inactive)	34.2 µM (inactive)	25.5 µM (inactive)	85.7 µM (inactive)	> 100 µM (inactive)	24.5 µM (inactive)
CC1=CC(=O)CC(C)(C)C1/C=C/C(C)=C/C=C/C(C)=C/C=C/C=C(C)/C=C/C=C(C)/C=C/C1C(C)=CC(=O)CC1(C)C (centres undefined)	> 100 µM (inactive)		53.1 µM (inactive)	23.3 µM (inactive)	31.3 µM (inactive)	37.2 µM (inactive)	37.2 µM (inactive)	40.4 µM (inactive)	29.2 µM (inactive)	> 100 µM (inactive)	20.8 µM (inactive)	72.6 µM (inactive)	41.1 µM (inactive)	78.5 µM (inactive)	44.4 µM (inactive)	> 100 µM (inactive)	45.8 µM (inactive)	> 100 µM (inactive)	61.2 µM (inactive)	45.5 µM (inactive)
CC1(C)N=C2C(=O)c3c([nH]c4ccccc34)[C@]3(C)CCC1CC23 (some centres undefined)	> 6.25 µM (inactive)	> 6.25 µM (inactive)	> 6.25 µM (inactive)	> 6.25 µM (inactive)	> 6.25 µM (inactive)	> 6.25 µM (inactive)	> 6.25 µM (inactive)		> 6.25 µM (inactive)	> 6.25 µM (inactive)	> 6.25 µM (inactive)	> 6.25 µM (inactive)	> 6.25 µM (inactive)	> 6.25 µM (inactive)	> 6.25 µM (inactive)	> 6.25 µM (inactive)	> 6.25 µM (inactive)		> 6.25 µM (inactive)	> 6.25 µM (inactive)
